Measurements from patent publication US20130029923A1, “Materials and Methods for Prevention and Treatment of Viral Infections” (priority 2009, published 2013).

Test system: influenza virus H1N1 (A/Victoria/07159200/07), oseltamivir-resistant strain
Assay type: cell-based, human influenza virus

SMILES: C[C@@H]1O[C@@H](OC[C@H]2O[C@@H](OCCc3ccc(O)c(O)c3)[C@H](O)[C@@H](O)[C@@H]2OC(=O)/C=C/c2ccc(O)c(O)c2)[C@H](O)[C@H](O)[C@H]1O [Compound A1, forsythoside A]
- suppression of virus replication (TCID50) compared with DMSO-treated cells: ~3 fold
